Source: patent publication US6380218B1, “Nicotinamide derivatives” (Pfizer Inc, priority 1997, dated 2002)

melting point [°C] | Structure (SMILES)
118 to 119 | O=C(NCc1ccccn1)c1cccnc1Oc1cccnc1 [Example 181, N-Pyridin-2-ylmethyl-2-(pyridin-3-yloxy)-nicotinamide]
130 to 131 | O=C(NCc1ccc2c(c1)OCO2)c1cccnc1Oc1cccnc1 [Example 182, N-Benzo[1,3]dioxol-5-ylmethyl-2-(pyridin-3-yloxy)-nicotinamide]
88 to 90 | O=C(NCc1ccccc1Cl)c1cccnc1Oc1cccc(C(F)(F)F)c1 [Example 184, N-(2-Chloro-benzyl)-2-(3-trifluoromethyl-phenoxy)-nicotinamide]
137 to 139 | O=C(Cc1ccccc1Cl)Nc1cccnc1Oc1cccnc1 [Example 185, 2-(2-Chloro-phenyl)-N-[2-(pyridin-3-yloxy)-pyridin-3-yl]-acetamide]
110 to 112 | CC(=O)c1ccc(CC(=O)Nc2cccnc2Oc2cccnc2)cc1 [Example 186, 2-(4-Acetyl-phenyl)-N-[2-(pyridin-3-yloxy)-pyridin-3-yl]-acetamide]
57 to 59 | CC(C)(O)c1ccc(CNC(=O)c2cccnc2Oc2cccc(Cl)c2)cc1 [Example 187, 2-(3-Chloro-phenoxy)-N-[4-(1-hydroxy-1-methyl-ethyl)-benzyl]-nicotinamide]
126 to 128 | O=C(NCc1ccccc1Cl)c1cccnc1Oc1cccc(Cl)c1 [Example 189, N-(2-Chloro-benzyl)-2-(3-chloro-phenoxy)-nicotinamide]
222 to 223 | NS(=O)(=O)c1ccc(CNC(=O)c2cccnc2Oc2ccc(F)cc2)cc1 [Example 193, 2-(4-Fluoro-phenoxy)-N-(4-sulfamoyl-benzyl)-nicotinamide]
225 to 226 | NS(=O)(=O)N1CCC(CNC(=O)c2cccnc2Oc2ccc(F)cc2)CC1 [Example 194, 2-(4-Fluoro-phenoxy)-N-(1-sulfamoyl-piperidin-4-ylmethyl)-nicotinamide]
55 to 57 | O=C(NCC1CCC=CO1)c1cccnc1Oc1ccc(F)cc1 (stereo not shown) [Example 195, N-(3,4-Dihydro-2H-pyran-2-ylmethyl)-2-(4-fluoro-phenoxy)-nicotinamide]
179 to 180 | N#Cc1cccc(Oc2ncccc2C(=O)NCc2ccc(S(N)(=O)=O)cc2)c1 [Example 196, 2-(3-Cyano-phenoxy)-N-(4-sulfamoyl-benzyl)-nicotinamide]
142 to 143 | COc1cccc(Oc2ncccc2C(=O)NCc2ccc(S(N)(=O)=O)cc2)c1 [Example 200, 2-(3-Methoxy-phenoxy)-N-(4-sulfamoyl-benzyl)-nicotinamide]
69 to 71 | COc1cccc(Oc2ncccc2C(=O)NCc2ccc(C(C)(C)O)cc2)c1 [Example 201, N-[4-(1-Hydroxy-1-methyl-ethyl)-benzyl]-2-(3-methoxy-phenoxy)-nicotinamide]
106 to 108 | CC(C)(O)c1ccc(CNC(=O)c2cccnc2Oc2cccc(F)c2)cc1 [Example 202, 2-(3-Fluoro-phenoxy)-N-[4-(1-hydroxy-1-methyl-ethyl)-benzyl]-nicotinamide]
135 to 137 | CC(C)(O)c1ccc(CC(=O)Nc2cccnc2Oc2ccc(F)cc2)cc1 [Example 203, N-[2-(4-Fluoro-phenoxy)-pyridin-3-yl]-2-[4-(1-hydroxy-1-methyl-ethyl)-phenyl]-acetamide]
107 to 109 | CSc1cccc(Oc2ncccc2C(=O)NCc2ccc(C(C)(C)O)cc2)c1 [Example 206, N-[4-(1-Hydroxy-1-methyl-ethyl)-benzyl]-2-(3-methylsulfanyl-phenoxy)-nicotinamide]
51 to 53 | CC(C)(O)c1ccc(CNC(=O)c2cccnc2Oc2cccc(S(C)(=O)=O)c2)cc1 [Example 207, N-[4-(1-Hydroxy-1-methyl-ethyl)-benzyl]-2-(3-methanesulfonyl-phenoxy)-nicotinamide]
142 to 144 | O=C(NCc1ccncc1)c1cccnc1Oc1cccnc1 [Example 208, N-Pyridin4-ylmethyl-2-(pyridin-3-yloxy)-nicotinamide]
159 | Cc1cnc(CNC(=O)c2cccnc2Oc2ccc(F)cc2)cn1 [Example 209, 2-(4-Fluoro-phenoxy)-N-(5-methyl-pyrazin-2-ylmethyl)-nicotinamide]
122 to 124 | CC(C)(O)c1ccc(CC(=O)Nc2cccnc2Oc2cccnc2)cc1 [Example 211, 2-[4-(1-Hydroxy-1-methyl-ethyl)-phenyl]-N-[2-(pyridin-3-yloxy)-pyridin-3-yl]-acetamide]
85 to 87 | CC(=O)c1cccc(Oc2ncccc2NC(=O)Cc2ccc(C(C)(C)O)cc2)c1 [Example 213, N-[2-(3-Acetyl-phenoxy)-pyridin-3-yl]-2-[4-(1-hydroxy-1-methyl-ethyl)-phenyl]-acetamide]
129 to 130 | CC(C)(O)C1CCC(CNC(=O)c2cccnc2Oc2cccc(C#N)c2)CC1 (stereo not shown) [Example 214, 2-(3-Cyano-phenoxy)-N-[4-(1-hydroxy-1-methyl-ethyl)-cyclohexylmethyl]-nicotinamide]

melting point [°C] | Structure (SMILES)
157 to 159 | O=C1COC(CNC(=O)c2cccnc2Oc2ccc(F)cc2)CN1 (stereo not shown) [Example 216, 2-(4-Fluoro-phenoxy)-N-(5-oxo-morpholin-2-ylmethyl)-nicotinamide]
97 to 99 | CC(C)(O)c1ccc(CC(=O)Nc2cccnc2Oc2cccc(C#N)c2)cc1 [Example 218, N-[2-(3-Cyano-phenoxy)-pyridin-3-yl]-2-[4-(1-hydroxy-1methyl-ethyl)-phenyl]-acetamide]
134 to 136 | O=C(NCc1ccc(C(=O)C(F)(F)F)cc1)c1cccnc1Oc1cccnc1 [Example 219, 2-(Pyridin-3-yloxy)-N-(4-trifluoroacetyl-benzyl)-nicotinamide]
148 to 150 | CC(=O)c1cccc(Oc2ncccc2C(=O)NCc2ccncc2)c1 [Example 220, 2-(3-Acetyl-phenoxy)-N-pyridin-4-ylmethyl-nicotinamide]
52 to 54 | CC(=O)c1cccc(Oc2ncccc2C(=O)NCc2ccc(C(C)(C)O)cc2)c1 [Example 221, 2-(3-Acetyl-phenoxy)-N-[4-(1-hydroxy-1-methyl-ethyl)-benzyl]-nicotinamide]
140 to 142 | CC(=O)c1cccc(Oc2ncccc2C(=O)NCc2ccccc2Cl)c1 [Example 222, 2-(3-Acetyl-phenoxy)-N-(2-chloro-benzyl)-nicotinamide]
105 to 107 | CC(=O)c1cccc(Oc2ncccc2C(=O)NCc2ccc(C(C)O)cc2)c1 (stereo not shown) [Example 223, 2-(3-Acetyl-phenoxy)-N-[4-(1-hydroxy-ethyl)-benzyl]-nicotinamide]
162 to 164 | CC(=O)c1cccc(Oc2ncccc2C(=O)NCc2ccc(S(N)(=O)=O)cc2)c1 [Example 224, 2-(3-Acetyl-phenoxy)-N-(4-sulfamoyl-benzyl)-nicotinamide]
110 to 111 | CC(=O)C1CCC(CNC(=O)c2cccnc2Oc2ccc(F)cc2)CC1 (stereo not shown) [Example 229, N-(4-Acetyl-cyclohexylmethyl)-2-(4-fluoro-phenoxy)-nicotinamide]
92 to 94 | CC(C)(O)c1ccc(CNC(=O)c2cccnc2Oc2ccc(F)cc2F)cc1 [Example 230, 2-(2,4-Difluoro-phenoxy)-N-[4-(1-hydroxy-1-methyl-ethyl)-benzyl]-nicotinamide]
98 to 100 | CC(C)(O)c1ccc(CNC(=O)c2cccnc2Oc2ccc(F)c(F)c2)cc1 [Example 231, 2-(3,4-Difluoro-phenoxy)-N-[4-(1-hydroxy-1-methyl-ethyl)-benzyl]-nicotinamide]
74 to 76 | O=C(NCc1ccc(C2(O)CCC2)cc1)c1cccnc1Oc1ccc(F)c(F)c1 [Example 232, 2-(3,4-Difluoro-phenoxy)-N-[4-(1-hydroxy-cyclobutyl)-benzyl]-nicotinamide]
102 to 104 | CC(=O)c1cccc(Oc2ncccc2C(=O)NCc2ccc(C(C)(C)O)cc2Cl)c1 [Example 235, 2-(3-Acetyl-phenoxy)-N-[2-chloro-4-(1-hydroxy-1-methyl-ethyl)-benzyl]-nicotinamide]
95 to 97 | CC(=O)c1ccc(Oc2ncccc2C(=O)NCc2ccc(C(C)(C)O)cc2)cc1 [Example 236, 2-(4-Acetyl-phenoxy)-N-[4-(1-hydroxy-1-methyl-ethyl)-benzyl]-nicotinamide]
68 to 70 | CC(=O)c1cccc(Oc2ncccc2C(=O)NCc2ccc(C(C)(C)O)cc2F)c1 [Example 237, 2-(3-Acetyl-phenoxy)-N-[2-fluoro-4-(1-hydroxy-1-methyl-ethyl)-benzyl]nicotinamide]
68 to 70 | CC(C)(O)c1ccc(CNC(=O)c2cccnc2Oc2cc(F)cc(F)c2)cc1 [Example 238, 2-(3,5-Difluoro-phenoxy)-N-[4-(1-hydroxy-1-methyl-ethyl)-benzyl]-nicotinamide]
92 to 94 | CC(C)(O)[C@H]1CC[C@H](CNC(=O)c2cccnc2Oc2ccc(F)cc2F)CC1 [Example 239, trans-2-(2,4-Difluoro-phenoxy)-N-[4-(1-hydroxy-1-methyl-ethyl)-cyclohexylmethyl]-nicotinamide]
80 to 82 | CC(C)(O)[C@H]1CC[C@H](CNC(=O)c2cccnc2Oc2ccc(F)c(F)c2)CC1 [Example 240, trans-2-(3,4-Difluoro-phenoxy)-N-[4-(1-hydroxy-1-methyl-ethyl)-cyclohexylmethyl]-nicotinamide]
105 to 107 | CC(=O)c1cccc(Oc2ncccc2C(=O)NCC2CCC(C(C)(C)O)CC2)c1 (stereo not shown) [Example 242, 2-(3-Acetyl-phenoxy)-N-[4-(1-hydroxy-1-methyl-ethyl)-cyclohexylmethyl]-nicotinamide]
147 to 149 | CC(C)(O)c1ccc(CNC(=O)c2cccnc2Oc2ccc(F)c(C#N)c2)cc1 [Example 243, 2-(3-Cyano-4-fluoro-phenoxy)-N-[4-(1-hydroxy-1-methyl-ethyl)-benzyl]-nicotinamide]
151 to 153 | CC(C)(O)c1ccc(CNC(=O)c2cccnc2Oc2ccc(F)c(C#N)c2)c(Cl)c1 [Example 244, N-[2-Chloro-4-(1-hydroxy-1-methyl-ethyl)-benzyl]-2-(3-cyano-4-fluoro-phenoxy)-nicotinamide]
